Data set [1] concerns Ins2^+/Akita (Akita) mouse. The data set is described as follows: Akita mouse chronic efficacy study. The format is in vivo. Conditions: 49 days from initial injection. On the procedure:
FIGS. 17A-17C. […] (FIGS. 17A-17B) Random insulin and C-peptide levels in Ins2^+/Akita mice on Day 58 (21 d post injections). KIRA6 (5 mg/kg)(n=5) and vehicle (n=4). (FIG. 17C) Total β-cell area as a percentage of total pancreas area on Day 55 (18 d post injections). KIRA6 (5 mg/kg)(n=6) and vehicle (n=3).
Based on low micromolar KIRA6 needed for protection in cell culture, we chose i.p. dosing regimens of 5 or 10 mg/kg b.i.d for Akita chronic efficacy studies to provide similar exposure. We injected KIRA6 into randomized 3-week old male Akita mice when their random blood glucose levels were at prediabetic range (˜200 mg/dl).
[…] and C57BL/6 Ins2^WT/C96Y (Ins2^+/Akita) mice were obtained from Jackson Laboratories. Glucose levels were measured from tail snips obtained between 9:00 and 11:00 AM using a glucometer (Nova Statstrip Xpress, Data Sciences International). Serum insulin and C-peptide levels were measured using mouse ultra-sensitive insulin and C-peptide ELISA (Mercodia). […]
Mice were fasted for 17 h before i.p. injection with glucose (2 g/kg of body weight). Blood was collected from the tail, and glucose levels were determined by using a glucometer (Nova Statstrip Xpress, Data Sciences International).
Pancreatic sectioning, staining and analysis were done as described previously (Chintinne et al., 2010). […] A minimum of 2% of the total organ volume was stained and measured. […]

Data set [2] concerns the target T1, IRE1α* (Homo sapiens, UniProt O75460).
T1 construct: human IRE1α (residues 469-977, IRE1α*); made in house; host or cells: SF9 insect cells, Bac-to-Bac baculovirus
The data set is described as follows: IRE1α* kinase assay (96-well dot blot, 32γ-ATP, STK peptide substrate 2). The format is biochemical. The protocol: FIGS. 16A-16C. Divergent modulation of IRE1α RNase activity using distinct classes of kinase inhibitors. (FIG. 16A) KIRA6 inhibition of IRE1α* kinase activity. IC50 values determined by fitting percent kinase activity (n=3); Urea PAGE of competition cleavage by IRE1α* of XBP1 RNA mini-substrate (FIG. 16B) and α^32P-labeled Ins2 RNA (FIG. 16C), under indicated [KIRA6]; IC50s determined by fitting in-gel fluorescence intensities (XBP1) and phosphorimager (Ins2).
KIRAs are tested for ability to inhibit IRE1α* kinase and RNase activities in vitro. The XBP1 minisubstrate assay shown in FIGS. 1B-1C, is amenable to 96- or 384-well format, and is used to determine RNase IC50s. In parallel, kinase IC50s for all KIRAs are determined in a 96-well dot blot assay with 32γ-ATP and STK peptide substrate 2 as substrates. Time-dependence of inhibition is determined for all electrophile-containing KIRAs. RNase and kinase assays have been used to profile the KIRAs in FIG. 13, showing a strong correlation between kinase and RNase IC50s. […] Thus, the structure-based design strategy uses these two kinases as counter targets (described below).

Data set [3] is described as follows: Pharmacokinetic profile in BALB/c mice. It counts as in vivo, mouse. Conditions: 10 mg/kg.
Data set [4] concerns the target T1, IRE1α*. The data set is described as follows: XBP1 RNA minisubstrate (FRET-quenched) RNase assay. The format is biochemical. Conditions: IRE1α*.
Data set [5] in a line: Compound toxicity / proliferative blocks in cells. It counts as cell-based.
The subject of data set [6] is adult rats. The experiment in a line: Tm-induced acute photoreceptor loss, intravitreal co-injection. The format is in vivo. Conditions: Tm at 3 μg/ml. On the procedure:
[…]. […] Rhodopsin mRNA may be an IRE1α RNase substrate since Rhodopsin RNA is cleaved by IRE1α*, but not RNase-dead IRE1α* (N906A), at a primary G/C site with flanking sequence similarity to scission sites in XBP1.
Next, to test whether KIRA6 also provides functional protection, we established a dose-response curve to determine threshold [Tm] that cause functional retinal damage as measured by scotopic electroretinograms (ERG). Based on the results, we injected Tm at 3 μg/ml.
Mice were anaesthetized with 1.5-3% isoflurane, eyes were dilated with 2.5% phenylephrine hydrochloride and 1% tropicamide, and corneas were kept moist with regular application of 2.5% methylcellulose. Eyes were examined using a Micron III retinal imaging system (Phoenix Research Labs). […]
Rats dark-adapted overnight were anesthetized with ketamine (100 mg/ml) and xylazine (20 mg/ml) via intraperitoneal injection in dim red light. […] Briefly, […] flashes of white light of increasing intensities were used to induce bilateral, full-field ERGs; responses were recorded using contact lens electrodes with a UTAS-E 3000 Visual Electrodiagnostic System (LKC Technologies, Inc.). […] Briefly, 10-μsec flashes of white light of increasing intensities were used to induce bilateral, full-field ERGs; responses were recorded using contact lens electrodes with a UTAS-E 3000 Visual Electrodiagnostic System (LKC Technologies, Inc.).

One may read the IC50 as the concentration needed to halve the response being measured. Read a low IC50 as greater potency in that assay. The term Cmax denotes the maximum level reached in the sampled fluid or tissue. As a reminder, the half-life is how long it takes for the measured level to halve. Low values mean fast loss, high ones slow loss.

T1 sequence (O75460 469-977): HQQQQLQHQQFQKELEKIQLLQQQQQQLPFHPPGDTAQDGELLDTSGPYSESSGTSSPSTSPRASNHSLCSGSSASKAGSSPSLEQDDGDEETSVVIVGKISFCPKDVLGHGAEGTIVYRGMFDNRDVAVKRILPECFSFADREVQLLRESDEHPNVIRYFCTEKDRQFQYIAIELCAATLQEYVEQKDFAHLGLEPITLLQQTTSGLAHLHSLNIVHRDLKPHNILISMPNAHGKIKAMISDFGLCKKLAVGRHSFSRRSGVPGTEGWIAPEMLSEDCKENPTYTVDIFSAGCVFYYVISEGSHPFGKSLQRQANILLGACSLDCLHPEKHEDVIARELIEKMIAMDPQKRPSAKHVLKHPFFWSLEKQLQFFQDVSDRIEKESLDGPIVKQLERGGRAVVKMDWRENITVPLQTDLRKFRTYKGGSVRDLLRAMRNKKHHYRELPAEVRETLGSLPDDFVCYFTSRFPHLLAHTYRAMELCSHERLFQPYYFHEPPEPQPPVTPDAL

On to `CC(C)(C)c1nc(-c2ccc(NC(=O)Nc3cccc(C(F)(F)F)c3)c3ccccc23)c2c(N)nccn12` [KIRA6, 1-(4-(8-amino-3-tert-butylimidazo[1,5-a]pyrazin-1-yl)naphthalen-1-yl)-3-(3-(trifluoromethyl)phenyl)urea], for which, in data set [1], the “body weight vs vehicles” value is reported as “no significant differences in weight from vehicles” and the general health result was “appeared healthy even after 49 days from initial injection”. In data set [2], this compound returned an IC50 of 620 nM. The compound also yielded a clearance in data set [3] (i.p.) of 22.4 mL/min/kg. Moreover, the AUC(0-t) in data set [3] (mouse, ip, plasma, read-out: AUC 0-24 h) came out at 14.3 µM·h. Moreover, in data set [3] (mouse, plasma, ip), the Cmax is 3300 nM and the half-life is 3.9 h. In data set [3] (mouse, plasma, ip, read-out: plasma level at 4 hr), the concentration at 4 h was 1200 nM. The concentration at 8 h in data set [3] (mouse, plasma, ip, read-out: plasma level at 8 hr) is 330 nM. The compound also returned a half-inhibitory concentration (IC50) in data set [4] of 210 nM. The toxicity in cells result in data set [5] is “negligible toxicity up to 10 μM”. In addition, the “scotopic ERG responsiveness” value in data set [6] was “substantially protects against loss of ERG responsiveness, significantly preserving both a- and b-wave amplitudes”.

The values above are taken from patent publication US20170165259A1, “COMBINED MODULATION OF IRE1” (THE REGENTS OF THE UNIVERSITY OF CALIFORNIA, priority 2014, published 2017).
